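1) Cells in 96-well plates. 2) Compound, 48 h, 5 concentrations. 3) Linear interpolation between surrounding doses. 4) Unreached endpoint = highest concentration. GI50 is the concentration that inhibits growth by half. TGI marks complete inhibition of growth.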
How the values were obtained:
Assay in all cases: inhibition of tumour cell growth, NCI panel, 48 h
[1] = test system: NCI-H460 lung
[2] = test system: SNB-75 CNS
[3] = test system: OVCAR-8 ovarian
[4] = test system: UO-31 renal
[5] = test system: SNB-19 CNS
[6] = test system: UACC-257 melanoma
[7] = test system: NCI-H23 lung
[8] = test system: UACC-62 melanoma
[9] = test system: ACHN renal
[10] = test system: SK-MEL-28 melanoma

Structure (SMILES) | TGI [1] | TGI [2] | TGI [3] | TGI [4] | TGI [5] | TGI [6] | TGI [7] | TGI [8] | TGI [9] | TGI [10] | GI50 [1] | GI50 [3] | GI50 [4] | GI50 [5] | GI50 [7] | GI50 [10] | GI50 [8] | GI50 [9] | GI50 [6] | GI50 [2]
O=C(c1cc(O)ccc1O)c1ccccc1C(Cl)(Cl)Cl | > 100 µM | > 100 µM | > 100 µM | > 100 µM | > 100 µM | > 100 µM | > 100 µM | > 100 µM | > 100 µM | – | – | – | – | – | – | – | – | – | – | –
O=C(CC(=O)N1N=C(c2ccccc2)C(N=Nc2ccc(C(=O)O)cc2)C1=O)Nc1ccc(F)cc1 (stereo not given) | > 100 µM | – | > 100 µM | 73.4 µM | > 100 µM | > 100 µM | 90.2 µM | 42.8 µM | > 100 µM | > 100 µM | – | – | – | – | – | – | – | – | – | –
C=C(CN1CCN(c2ccccc2OC)CC1)c1ccc(C(=O)Nc2ccccc2N)cc1 | > 50 µM | – | 32.4 µM | 16.4 µM | > 50 µM | – | 3.24 µM | 6.92 µM | 4.95 µM | > 50 µM | 17.5 µM | 9.28 µM | 7.93 µM | 12.1 µM | 0.447 µM | 2.14 µM | 1.18 µM | 0.856 µM | – | –
COC(=O)C1=C(OC)c2cc3c(cc2C(c2cc(OC)c(OC)c(OC)c2)C1C(=O)OC)OCO3 (stereo not given) | > 100 µM | > 100 µM | > 100 µM | > 100 µM | – | > 100 µM | > 100 µM | > 100 µM | > 100 µM | > 100 µM | – | – | – | – | – | – | – | – | – | –
Cc1c[nH]c2c1C13CC1CN(C(=O)c1cc4cc(NC(=O)c5cc6ccccc6o5)ccc4[nH]1)C3=CC2=O (stereo not given) | < 0.001 µM | – | < 0.001 µM | – | 0.00481 µM | – | < 0.001 µM | < 0.001 µM | – | – | > 1.17 ng/mL | > 1.17 ng/mL | > 1.17 ng/mL | – | > 1.17 ng/mL | – | > 1.17 ng/mL | – | – | –
c1ccc2c(CNCCCCCCNCc3cccc4ccccc34)cccc2c1 | 3.75 µM | 6.68 µM | 29 µM | 23.9 µM | – | 3.17 µM | 30.1 µM | 21.6 µM | 29.5 µM | 3.29 µM | – | – | – | – | – | – | – | – | – | –
Nc1[nH]c(=O)ncc1F | > 100 µM | – | > 100 µM | > 100 µM | > 100 µM | > 100 µM | > 100 µM | > 100 µM | > 100 µM | > 100 µM | – | – | – | – | – | – | – | – | – | –
O=C1C2c3[nH]c4ccccc4c3[C@@H]3CCCCCCCCCCC3C2C(=O)N1c1ccccc1 (stereo not given in full) | 34.8 µM | 6.44 µM | 42 µM | > 100 µM | 30.3 µM | – | 37.5 µM | 59.2 µM | > 100 µM | 58.8 µM | – | – | – | – | – | – | – | – | – | –
N#Cc1cccc(NC(=O)c2ccc(C(=O)O)c(C(=O)c3ccc(C(=O)O)c(C(=O)Nc4cccc(C#N)c4)c3)c2)c1 | > 100 µM | > 100 µM | > 100 µM | > 100 µM | > 100 µM | > 100 µM | > 100 µM | > 100 µM | – | – | – | – | – | – | – | – | – | – | – | –
Cc1cc(C)cc(-n2c3nc(=O)n(C)c(=O)c-3nc3ccccc32)c1 | 94.4 µM | > 100 µM | > 100 µM | > 100 µM | 50.9 µM | 31.2 µM | 39 µM | 31.5 µM | > 100 µM | – | – | – | – | – | – | – | – | – | – | –
Cn1c2ccccc2c(=Nc2ccccc2)c2c3ccccc3[nH]c21 | 1.49 µM | – | 10.2 µM | > 100 µM | – | 16 µM | 20.4 µM | 2.01 µM | 1.99 µM | 6.17 µM | 0.41 µM | 1.85 µM | 1.93 µM | – | 2.73 µM | 2.3 µM | 0.696 µM | 0.755 µM | 3.02 µM | –
CCC1C(C)c2c([nH]c3ccccc23)C2C(=O)N(c3ccccc3)C(=O)C21 (stereo not given) | 28.2 µM | 39.4 µM | 28.7 µM | – | – | – | 41.8 µM | 21.9 µM | 66.5 µM | 33.4 µM | – | – | – | – | – | – | – | – | – | –
CCCCCCCCCCCCn1c(C)nc2ccccc21 | 24.3 µM | 30.3 µM | – | 20.6 µM | 26.3 µM | – | 11.5 µM | 26.9 µM | 26.5 µM | 34.5 µM | 10.5 µM | – | 7.58 µM | 13.5 µM | 0.49 µM | 19.4 µM | 13.1 µM | 13.2 µM | – | 16.2 µM
COC(=O)/C=C/C(=O)C1C(C(=O)OC)C2(C(=O)OC)CCC1(C(=O)OC)N2 (stereo not given) | – | – | > 100 µM | > 100 µM | > 100 µM | – | > 100 µM | > 100 µM | – | > 100 µM | – | – | – | – | – | – | – | – | – | –
C=C(C=O)C1CC(=O)C(C(=O)OC)[C@@H]2O[C@@](C)(CC2=O)C[C@@H]2OC(=O)[C@]3(O[C@@H]23)[C@@H](C(=O)OC)C1 (stereo not given in full) | 70.8 µM | > 100 µM | 62.4 µM | 48.9 µM | > 100 µM | 28.6 µM | 42.8 µM | 44.8 µM | – | 66.5 µM | 24.4 µM | 17.9 µM | 19 µM | 38.3 µM | 18.3 µM | 20.2 µM | 18.1 µM | – | 10.2 µM | 31 µM
